According to patent US20080009418A1, “Selective Inhibitors” (Alchemia LTD., priority 2004, published 2008):

What was measured:
Human opioid (ORL1) = biological target: T1, Human opioid (ORL1) (Homo sapiens, UniProt P41146); test: Radioligand binding, human opioid ORL1 membranes, FlashPlate, [125I]-Nociceptin; conditions: compound at 10 μM; [125I]-Nociceptin
T1 construct: purchased Perkin Elmer Biosignal
Summary of the method: (§1)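 Cloned human receptor membranes were coated onto FlashPlate wells and incubated with radioligand and compound (added from a 0.5 mM DMSO daughter plate) for 1 hour at room temperature in the dark. Scintillation counting gave percent inhibition, with DMSO defining total and reference ligand defining non-specific binding.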

Human melanocortin (MC5) = biological target: T2, Human melanocortin (MC5) (Homo sapiens, UniProt P33032); test: Radioligand binding, human melanocortin MC5 membranes, FlashPlate, [125I]-NDP-αMSH; conditions: compound at 10 μM; [125I]-NDP-αMSH
T2 construct: purchased Perkin Elmer Biosignal
T2 sequence (P33032 whole entry): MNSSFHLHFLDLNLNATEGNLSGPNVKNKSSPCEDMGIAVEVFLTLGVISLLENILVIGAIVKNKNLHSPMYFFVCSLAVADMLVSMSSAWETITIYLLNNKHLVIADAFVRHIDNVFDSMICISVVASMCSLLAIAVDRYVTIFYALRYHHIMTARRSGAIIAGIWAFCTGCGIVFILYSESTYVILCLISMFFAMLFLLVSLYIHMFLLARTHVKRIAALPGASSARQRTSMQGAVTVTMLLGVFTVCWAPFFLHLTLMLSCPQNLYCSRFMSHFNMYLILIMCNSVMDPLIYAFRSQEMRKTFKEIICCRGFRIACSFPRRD
Summary of the method: as §1

Human Melanocortin (MC4) = biological target: T3, Human Melanocortin (MC4) (Homo sapiens, UniProt P32245); test: Radioligand binding, human melanocortin MC4 membranes, FlashPlate, [125I]-NDP-αMSH; conditions: compound at 10 μM; [125I]-NDP-αMSH
T3 construct: purchased Perkin Elmer Biosignal
T3 sequence (P32245 whole entry): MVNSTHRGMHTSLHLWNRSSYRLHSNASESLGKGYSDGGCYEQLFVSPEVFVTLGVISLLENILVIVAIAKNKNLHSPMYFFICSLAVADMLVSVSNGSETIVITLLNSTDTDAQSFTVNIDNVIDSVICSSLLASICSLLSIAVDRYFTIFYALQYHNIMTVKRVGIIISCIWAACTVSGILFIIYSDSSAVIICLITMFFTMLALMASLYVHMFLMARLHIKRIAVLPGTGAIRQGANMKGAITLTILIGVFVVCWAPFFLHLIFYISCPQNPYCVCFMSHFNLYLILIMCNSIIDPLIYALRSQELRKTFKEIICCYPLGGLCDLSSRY
Summary of the method: as §1

[1] = biological target: T4, Human neuropeptide Y (NPY-Y1) (Homo sapiens, UniProt P25929); test: Radioligand binding, human neuropeptide Y NPY-Y1 membranes, FlashPlate, [125I]-PYY; conditions: compound at 10 μM; [125I]-PYY
T4 construct: purchased Perkin Elmer Biosignal
T4 sequence (P25929 1-384): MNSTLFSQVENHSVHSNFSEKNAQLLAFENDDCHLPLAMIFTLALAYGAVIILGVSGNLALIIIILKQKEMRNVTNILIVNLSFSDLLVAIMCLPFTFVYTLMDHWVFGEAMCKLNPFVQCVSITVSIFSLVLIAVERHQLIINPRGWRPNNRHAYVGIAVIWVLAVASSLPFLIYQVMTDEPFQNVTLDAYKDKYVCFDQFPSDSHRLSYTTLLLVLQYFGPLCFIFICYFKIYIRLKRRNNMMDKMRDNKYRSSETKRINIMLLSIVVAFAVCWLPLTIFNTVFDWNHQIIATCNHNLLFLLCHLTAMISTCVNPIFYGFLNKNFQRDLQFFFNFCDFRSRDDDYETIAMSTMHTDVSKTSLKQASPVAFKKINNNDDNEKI
Summary of the method: as §1

Human neurokinin (NK1) = biological target: T5, Human neurokinin (NK1) (Homo sapiens, UniProt P25103); test: Radioligand binding, human neurokinin NK1 membranes, filtration, [125I]-Substance P; conditions: compound at 10 μM; [125I]-Substance P
T5 construct: purchased Perkin Elmer Biosignal
T5 sequence (P25103 whole entry): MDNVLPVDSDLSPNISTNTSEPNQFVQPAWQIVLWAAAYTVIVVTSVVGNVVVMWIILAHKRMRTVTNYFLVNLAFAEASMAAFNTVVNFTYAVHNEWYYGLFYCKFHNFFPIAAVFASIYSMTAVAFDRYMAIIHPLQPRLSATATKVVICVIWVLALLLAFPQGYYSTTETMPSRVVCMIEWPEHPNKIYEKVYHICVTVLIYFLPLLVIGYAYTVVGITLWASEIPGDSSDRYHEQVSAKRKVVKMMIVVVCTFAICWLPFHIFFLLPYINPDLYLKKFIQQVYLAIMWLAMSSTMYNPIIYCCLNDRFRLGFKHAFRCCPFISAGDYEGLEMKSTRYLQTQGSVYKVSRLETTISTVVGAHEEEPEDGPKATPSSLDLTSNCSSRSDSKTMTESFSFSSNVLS
Summary of the method: (§2)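 Percent inhibition of radioligand binding measured on recombinant human membranes: NK1 with [125I]-Substance P, KOP with [3H]-Diprenorphine. Incubation 1 h at room temperature, then harvest onto 0.3% PEI-soaked filters, cold Tris-HCl pH 7.4 washes and scintillation counting; non-specific binding from reference ligand wells.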

[2] = biological target: T6, Human melanin-concentrating hormone (MCH1) (Homo sapiens, UniProt Q99705); test: Radioligand binding, human melanin-concentrating hormone MCH1 membranes, FlashPlate, [125I]-S36057; conditions: compound at 10 μM; [125I]-S36057
T6 construct: purchased Perkin Elmer Biosignal
T6 sequence (Q99705 whole entry): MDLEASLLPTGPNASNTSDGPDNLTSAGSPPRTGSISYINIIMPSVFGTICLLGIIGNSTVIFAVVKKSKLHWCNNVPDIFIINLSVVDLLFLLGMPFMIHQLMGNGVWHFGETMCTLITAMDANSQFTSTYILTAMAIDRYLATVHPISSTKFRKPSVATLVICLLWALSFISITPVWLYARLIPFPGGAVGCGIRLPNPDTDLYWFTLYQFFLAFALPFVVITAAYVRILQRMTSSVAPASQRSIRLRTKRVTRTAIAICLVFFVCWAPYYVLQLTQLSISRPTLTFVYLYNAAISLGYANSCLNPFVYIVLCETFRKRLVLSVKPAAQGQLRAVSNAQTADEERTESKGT
Summary of the method: as §1

Human μ-opioid (MOP) = biological target: T7, Human μ-opioid (MOP) (Homo sapiens, UniProt P35372); test: Radioligand binding, human μ-opioid (MOP) membranes, FlashPlate, [3H]-Naloxone; conditions: compound at 10 μM; [3H]-Naloxone
T7 construct: purchased Perkin Elmer Biosignal
T7 sequence (P35372 whole entry): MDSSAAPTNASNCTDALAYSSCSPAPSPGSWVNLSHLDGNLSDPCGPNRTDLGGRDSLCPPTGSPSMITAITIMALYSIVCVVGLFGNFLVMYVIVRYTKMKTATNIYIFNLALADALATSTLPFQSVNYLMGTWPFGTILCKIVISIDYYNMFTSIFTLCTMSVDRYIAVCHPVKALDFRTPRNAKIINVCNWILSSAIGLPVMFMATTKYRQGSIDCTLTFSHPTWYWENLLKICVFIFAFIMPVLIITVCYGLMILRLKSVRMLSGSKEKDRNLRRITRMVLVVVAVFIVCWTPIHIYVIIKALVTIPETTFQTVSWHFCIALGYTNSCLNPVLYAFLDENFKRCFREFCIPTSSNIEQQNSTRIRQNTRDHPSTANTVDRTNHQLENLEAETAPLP
Summary of the method: as §1

Human δ-opioid (DOP) = biological target: T8, Human δ-opioid (DOP) (Homo sapiens, UniProt P41143); test: Radioligand binding, human δ-opioid (DOP) membranes, FlashPlate, [3H]-Bremazocine; conditions: compound at 10 μM; [3H]-Bremazocine
T8 construct: purchased Perkin Elmer Biosignal
T8 sequence (P41143 whole entry): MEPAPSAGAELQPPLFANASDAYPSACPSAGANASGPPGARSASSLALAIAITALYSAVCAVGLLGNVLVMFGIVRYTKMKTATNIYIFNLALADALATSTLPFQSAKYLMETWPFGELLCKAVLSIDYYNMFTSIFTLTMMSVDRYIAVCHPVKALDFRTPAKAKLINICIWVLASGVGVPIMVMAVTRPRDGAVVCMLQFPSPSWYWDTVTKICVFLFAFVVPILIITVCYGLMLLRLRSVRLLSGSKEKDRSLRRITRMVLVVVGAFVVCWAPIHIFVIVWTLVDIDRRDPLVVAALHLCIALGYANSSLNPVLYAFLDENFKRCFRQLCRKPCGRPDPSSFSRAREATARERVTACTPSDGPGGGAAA
Summary of the method: as §1

Human κ-Opioid (KOP) = biological target: T9, Human κ-Opioid (KOP) (Homo sapiens, UniProt P41145); test: Radioligand binding, human κ-opioid (KOP) membranes, filtration, [3H]-Diprenorphine; conditions: compound at 10 μM; [3H]-Diprenorphine
T9 construct: purchased Perkin Elmer Biosignal
T9 sequence (P41145 whole entry): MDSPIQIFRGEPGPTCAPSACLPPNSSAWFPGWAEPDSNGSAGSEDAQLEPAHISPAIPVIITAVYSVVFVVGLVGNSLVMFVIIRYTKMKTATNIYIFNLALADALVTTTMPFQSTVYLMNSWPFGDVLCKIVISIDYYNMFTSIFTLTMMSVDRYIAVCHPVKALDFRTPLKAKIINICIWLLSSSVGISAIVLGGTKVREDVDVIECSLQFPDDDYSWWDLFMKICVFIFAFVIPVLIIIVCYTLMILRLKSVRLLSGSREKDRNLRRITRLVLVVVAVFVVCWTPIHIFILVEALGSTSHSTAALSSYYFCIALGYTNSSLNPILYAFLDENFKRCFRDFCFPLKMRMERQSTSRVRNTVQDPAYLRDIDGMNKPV
Summary of the method: as §2

Mouse urotensin (mUR2) = biological target: T10, Mouse urotensin (mUR2) (Mus musculus, UniProt Q8VIH9); test: Radioligand binding, mouse urotensin mUR2 membranes, FlashPlate, [125I]-Urotensin II; conditions: compound at 10 μM; [125I]-Urotensin II
T10 construct: purchased Perkin Elmer Biosignal
T10 sequence (Q8VIH9 1-385): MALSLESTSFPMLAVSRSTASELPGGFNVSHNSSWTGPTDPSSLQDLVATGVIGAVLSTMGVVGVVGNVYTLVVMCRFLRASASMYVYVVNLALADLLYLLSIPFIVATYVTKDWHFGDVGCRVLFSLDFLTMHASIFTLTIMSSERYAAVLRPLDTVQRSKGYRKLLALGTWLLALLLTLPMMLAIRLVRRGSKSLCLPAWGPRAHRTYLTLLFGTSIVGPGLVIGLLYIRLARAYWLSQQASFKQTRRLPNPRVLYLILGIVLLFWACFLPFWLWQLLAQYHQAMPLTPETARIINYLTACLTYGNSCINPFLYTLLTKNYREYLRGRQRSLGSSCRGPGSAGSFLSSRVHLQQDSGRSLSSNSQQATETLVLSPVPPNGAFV
Summary of the method: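 Cloned mouse urotensin (mUR2) receptor membranes from Perkin Elmer Biosignal were immobilized in FlashPlate microplates using a proprietary coating. Each well got 19.5 μl buffer, then 0.5 μl of DMSO, reference ligand, or compound. Adding 5 μl of [125I]-Urotensin II, diluted to 5× final concentration in binding buffer, started binding. Plates were sealed with TopSeal-A and incubated 1 hour at room temperature in the dark. Wells were counted for 30 seconds each on a TopCount after a 60-second delay, and percentage inhibition was calculated.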

Human Melanocortin (MC3) = biological target: T11, Human Melanocortin (MC3) (Homo sapiens, UniProt P41968); test: Radioligand binding, human melanocortin MC3 membranes, FlashPlate, [125I]-NDP-αMSH; conditions: compound at 10 μM; [125I]-NDP-αMSH
T11 construct: purchased Perkin Elmer Biosignal
T11 sequence (P41968 whole entry): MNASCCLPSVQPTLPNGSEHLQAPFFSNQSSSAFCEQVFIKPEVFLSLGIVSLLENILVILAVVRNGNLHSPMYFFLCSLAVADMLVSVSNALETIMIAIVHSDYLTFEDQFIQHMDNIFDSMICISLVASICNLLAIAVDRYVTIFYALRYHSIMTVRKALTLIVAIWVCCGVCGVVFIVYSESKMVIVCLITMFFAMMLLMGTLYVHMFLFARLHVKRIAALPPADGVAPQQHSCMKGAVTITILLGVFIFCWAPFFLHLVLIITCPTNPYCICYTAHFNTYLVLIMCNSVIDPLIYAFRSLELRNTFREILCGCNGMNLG
Summary of the method: as §1

T1 sequence (P41146 whole entry): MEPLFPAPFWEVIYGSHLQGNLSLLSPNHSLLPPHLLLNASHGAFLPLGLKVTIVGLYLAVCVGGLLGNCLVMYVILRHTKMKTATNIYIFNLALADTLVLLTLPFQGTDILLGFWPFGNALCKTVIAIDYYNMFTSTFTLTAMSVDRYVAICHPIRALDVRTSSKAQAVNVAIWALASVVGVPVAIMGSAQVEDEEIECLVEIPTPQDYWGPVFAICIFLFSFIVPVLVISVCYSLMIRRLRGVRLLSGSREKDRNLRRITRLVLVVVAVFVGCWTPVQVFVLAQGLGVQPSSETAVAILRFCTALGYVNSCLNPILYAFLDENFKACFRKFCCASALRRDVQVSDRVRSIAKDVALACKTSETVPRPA

SMILES | A10 radioligand binding, percentage inhibition (Human opioid (ORL1)) | A5 radioligand binding, percentage inhibition (Human melanocortin (MC5)) | A4 radioligand binding, percentage inhibition (Human Melanocortin (MC4)) | A9 radioligand binding, percentage inhibition [1] | A8 radioligand binding, percentage inhibition (Human neurokinin (NK1)) | A6 radioligand binding, percentage inhibition [2] | A7 radioligand binding, percentage inhibition (Human μ-opioid (MOP)) | A1 radioligand binding, percentage inhibition (Human δ-opioid (DOP)) | A2 radioligand binding, percentage inhibition (Human κ-Opioid (KOP)) | A11 radioligand binding, percentage inhibition (Mouse urotensin (mUR2)) | A3 radioligand binding, percentage inhibition (Human Melanocortin (MC3))
CO[C@H]1[C@H](O)[C@@H](COCc2cccc(O)c2)OC(OCc2ccccc2)[C@@H]1NC(=O)CCCNC(=N)N (stereo partly shown) [compound 154] | − (“−” indicates less than 50% inhibition at 10 μM) | − (“−” indicates less than 50% inhibition at 10 μM) | − (“−” indicates less than 50% inhibition at 10 μM) | − (“−” indicates less than 50% inhibition at 10 μM) | + (“+” indicates greater than 50% inhibition at 10 μM) | − (“−” indicates less than 50% inhibition at 10 μM) | − (“−” indicates less than 50% inhibition at 10 μM) | − (“−” indicates less than 50% inhibition at 10 μM) | − (“−” indicates less than 50% inhibition at 10 μM) | − (“−” indicates less than 50% inhibition at 10 μM) | − (“−” indicates less than 50% inhibition at 10 μM)
CO[C@H]1[C@H](O)[C@@H](COCc2cccc(O)c2)OC(OCc2ccc(Cl)cc2)[C@@H]1NC(=O)CNC(=N)N (stereo partly shown) [compound 155] | − (“−” indicates less than 50% inhibition at 10 μM) | + (“+” indicates greater than 50% inhibition at 10 μM) | − (“−” indicates less than 50% inhibition at 10 μM) | − (“−” indicates less than 50% inhibition at 10 μM) | − (“−” indicates less than 50% inhibition at 10 μM) | − (“−” indicates less than 50% inhibition at 10 μM) | − (“−” indicates less than 50% inhibition at 10 μM) | − (“−” indicates less than 50% inhibition at 10 μM) | − (“−” indicates less than 50% inhibition at 10 μM) | − (“−” indicates less than 50% inhibition at 10 μM) | − (“−” indicates less than 50% inhibition at 10 μM)
CO[C@H]1[C@H](O)[C@@H](COCc2cccc(O)c2)OC(OCc2ccc(Cl)cc2)[C@@H]1NC(=O)CCCN (stereo partly shown) [compound 156] | − (“−” indicates less than 50% inhibition at 10 μM) | + (“+” indicates greater than 50% inhibition at 10 μM) | − (“−” indicates less than 50% inhibition at 10 μM) | − (“−” indicates less than 50% inhibition at 10 μM) | + (“+” indicates greater than 50% inhibition at 10 μM) | − (“−” indicates less than 50% inhibition at 10 μM) | − (“−” indicates less than 50% inhibition at 10 μM) | − (“−” indicates less than 50% inhibition at 10 μM) | − (“−” indicates less than 50% inhibition at 10 μM) | − (“−” indicates less than 50% inhibition at 10 μM) | − (“−” indicates less than 50% inhibition at 10 μM)
CO[C@H]1[C@H](O)[C@@H](COCc2cccc(O)c2)OC(OCc2ccc(Cl)cc2)[C@@H]1NC(=O)CCCNC(=N)N (stereo partly shown) [compound 157] | − (“−” indicates less than 50% inhibition at 10 μM) | + (“+” indicates greater than 50% inhibition at 10 μM) | − (“−” indicates less than 50% inhibition at 10 μM) | − (“−” indicates less than 50% inhibition at 10 μM) | + (“+” indicates greater than 50% inhibition at 10 μM) | + (“+” indicates greater than 50% inhibition at 10 μM) | − (“−” indicates less than 50% inhibition at 10 μM) | − (“−” indicates less than 50% inhibition at 10 μM) | − (“−” indicates less than 50% inhibition at 10 μM) | − (“−” indicates less than 50% inhibition at 10 μM) | − (“−” indicates less than 50% inhibition at 10 μM)
CO[C@H]1[C@H](O)[C@@H](COCc2cccc(O)c2)OC(OCCc2ccccc2)[C@@H]1NC(=O)CNC(=N)N (stereo partly shown) [compound 158] | − (“−” indicates less than 50% inhibition at 10 μM) | − (“−” indicates less than 50% inhibition at 10 μM) | − (“−” indicates less than 50% inhibition at 10 μM) | − (“−” indicates less than 50% inhibition at 10 μM) | + (“+” indicates greater than 50% inhibition at 10 μM) | − (“−” indicates less than 50% inhibition at 10 μM) | − (“−” indicates less than 50% inhibition at 10 μM) | − (“−” indicates less than 50% inhibition at 10 μM) | − (“−” indicates less than 50% inhibition at 10 μM) | − (“−” indicates less than 50% inhibition at 10 μM) | − (“−” indicates less than 50% inhibition at 10 μM)
